The text below walks through data of patent US20210038559A1, “CANNABINOIDS AND DERIVATIVES FOR PROMOTING IMMUNOGENICITY OF TUMOR AND INFECTED CELLS” (priority 2018, published 2021).

Bounds are passed on as bounds.

One data set concerns A9 tumors. The experiment in a line: A9 tumor mouse model, intraperitoneal treatment. The format is in vivo. An excerpt:
FIG. 7A-7B. Number of live lymphocytes observed within the tumor of tumor bearing mice (n=8 for PBS negative control and Cannabigerol treatments, n=6 for TSA positive control). A9 tumors were present in mice for 7 days before intraperitoneal treatment, and mice were sacrificed 4-5 days after treatment. Cannabigerol upregulation of MHC-I expression attracts increased number of lymphocytes which can infiltrate the tumor.
To confirm the in vivo activity of cannabinoid compounds, a representative cannabinoid was tested in a representative animal model. A9 tumor cells were injected subcutaneously into mice at 8-10 weeks of age, and mice were treated 7 days later with either Cannabigerol, TSA, or Vehicle. 1×10^5 A9 cells were injected in a volume of 50 μL of PBS into the right flank of each mouse subcutaneously. Starting at day 7 after injection of the A9 tumor cells, intraperitoneal injections of Cannabigerol (Cayman Chemical Company) at 10 mg/kg, Trichostatin A (TSAX Sigma-Aldrich) at 0.5 mg/kg dissolved in 1% DMSO and PBS, or vehicle (0.2% DMSO, 5% Bovine Serum Albumin (BSA), in PBS) were administered daily to the animals. Cannabigerol was dissolved in 0.2% DMSO, 5% Bovine Serum Albumin, in PBS. Animals were weighed 3 times a week and during tumor measurements, and tumor measurements were begun upon appearance of the tumor, on […] of the trial. Tumor volume was determined using calipers to measure tumor dimensions. Mice were sacrificed at day 10, 11, and 12, as was dictated by subscribed humane endpoints, in which mice experienced tumor ulceration. Half of the tumors were removed from the mouse and immediately placed in digestion media (RPMI Medium 1640 (Gibco) with 10% FBS and Penicillin+Streptomycin (P+S), with the addition of 10% collagenase hyaluronidase, 15% DNAse I (Stemcell)). Tumors were chopped in 1 mL of digestion media and placed at a temperature of 35° C. for 30 minutes, before being passed through a 100 micron cell strainer (Falcon). […]

Data set [1] deals with MHC-I expression on COLO 205 cells. The experiment in a line: Phytocannabinoid MHC-I induction on COLO 205 cells, 0-100 μM, 48 hours. How it is done:
FIG. 4. Cell surface MHC class I expression was measured by flow cytometry (MFI).
Phytocannabinoids were tested for MHC-I-inducing activity on COLO 205 cells. Each cannabinoid was tested at a concentration range of 0-100 μM. […] “ND” indicates not determined.

Data set [2] relates to MHC class I expression on COLO 205 cells. The experiment in a line: MHC class I expression on COLO 205 cells, 24 hours, flow cytometry (W6/32). Conditions: for MFI: W6/32 staining; for increase in MHC class I expression: 24 hours, relative to non-treated cells. The method, then:
FIG. 2A-2F. […] Cells were treated for 24 hours and cell surface MHC class I expression was measured by flow cytometry.
Cannabigerol was also tested for its capacity to induce MHC class I expression in a human colorectal carcinoma cell line, COLO 205. The cells were treated with either 25 μM or 50 μM cannabigerol for 24 hours. Fluorophor (Alexa Fluor 488)-conjugated W6/32 antibody (Thermo Fisher) was used in a flow cytometry assay to quantitate MHC class I expression. […] Cannabigerol is only one of many cannabinoid-like molecules with potential biopharmaceutical activity. […] COLO 205 cells were treated with up to 40 μM of the cannabinoids 1-5 presented in Tables 1 and 2 and evaluated for cell surface MHC class I expression as described above for cannabigerol.

The subject of data set [3] is MHC class I expression, metastatic mouse tumor cell line. The experiment in a line: Indirect screen for compounds that increase MHC class I expression in a metastatic mouse tumor cell line. The class given is cell-based. An excerpt: An assay has been developed to indirectly screen for compounds that increase MHC class I expression in a metastatic mouse tumor cell line (U.S. patent Ser. No. 14/548,726, Jefferies et. al., published 28 May 2015). This assay identified numerous compounds that increased MHC expression. […] In addition, some other cannabinoids induce expression of MHC class I on tumor cells.

Setting [4] is: 10 mg/kg intraperitoneal daily from day 7, versus Vehicle treated group.

As to `CCCCCc1cc(O)c(C/C=C(\C)CCC=C(C)C)c(O)c1` [Example 1, 2-[(2E)-3,7-dimethyl-2,6-octadien-1-yl]-5-pentyl-1,3-benzenediol], the “absolute numbers of lymphocytes in tumors” value in the data set with A9 tumors (10 mg/kg intraperitoneal daily from day 7, relative to vehicle treated tumors) is reported as “Much higher”. Further, the Mouse weight entry with A9 tumors (setting [4]) is recorded as “similar”. In the data set with A9 tumors (setting [4]), the tumor volume result is “similar”. In addition, the midpoint of the response in data set [1] (Homo sapiens, COLO 205, 48 h), the EC50, lay at 40 µM. Further, in data set [1] (MHC-I expression on COLO 205 cells, 0-100 μM, 48 hours, relative to control cells treated only with buffer), the “Fold Induction” value turned out to be 2.7 Fold. Also, the MFI was determined as 125 in data set [2] (COLO 205, 10 μM); 130 in data set [2] (COLO 205, 20 μM); 130 in data set [2] (COLO 205, 30 μM); 164 in data set [2] (COLO 205, 40 μM). Further, the “increase in MHC class I expression” value in data set [2] (COLO 205, 25 μM) is listed as 25%; in data set [2] (COLO 205, 50 μM), 2 fold. The Cell viability in data set [2] (COLO 205, all treatment conditions (25 μM or 50 μM, 24 hours)) is on record as > 95%. The same compound returned a fold induction at 10 µM in data set [2] (Homo sapiens, COLO 205) of 1.03. The compound also came in with a fold induction at 20 µM in data set [2] (Homo sapiens, COLO 205) of 1.07. In data set [2] (Homo sapiens, COLO 205), this compound had a fold induction at 30 µM of 1.07. The compound further returned a fold induction at 40 µM in data set [2] (Homo sapiens, COLO 205) of 1.36. The “activity in the MHC class I screening assay” value in data set [3] was “significant activity”.
